One test concerns the target T1, human Chk1 kinase (Homo sapiens, UniProt O14757).
T1 sequence (O14757 1-476): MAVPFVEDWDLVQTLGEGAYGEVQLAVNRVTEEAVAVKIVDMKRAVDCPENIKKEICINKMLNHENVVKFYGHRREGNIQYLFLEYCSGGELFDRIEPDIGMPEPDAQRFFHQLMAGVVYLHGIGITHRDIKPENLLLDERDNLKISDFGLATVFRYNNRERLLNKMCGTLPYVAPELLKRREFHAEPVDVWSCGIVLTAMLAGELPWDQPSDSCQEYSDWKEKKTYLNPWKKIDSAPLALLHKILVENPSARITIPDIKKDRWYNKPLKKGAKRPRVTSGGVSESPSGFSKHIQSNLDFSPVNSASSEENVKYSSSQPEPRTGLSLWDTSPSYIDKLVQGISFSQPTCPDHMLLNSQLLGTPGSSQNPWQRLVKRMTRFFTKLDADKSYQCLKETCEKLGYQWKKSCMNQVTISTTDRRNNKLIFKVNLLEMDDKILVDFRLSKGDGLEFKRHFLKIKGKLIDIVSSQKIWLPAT
In words: biochemical.

The next test deals with human Chk2 kinase (Homo sapiens, UniProt O96017). Briefly: biochemical.
Chain of human Chk2 kinase (O96017 whole entry): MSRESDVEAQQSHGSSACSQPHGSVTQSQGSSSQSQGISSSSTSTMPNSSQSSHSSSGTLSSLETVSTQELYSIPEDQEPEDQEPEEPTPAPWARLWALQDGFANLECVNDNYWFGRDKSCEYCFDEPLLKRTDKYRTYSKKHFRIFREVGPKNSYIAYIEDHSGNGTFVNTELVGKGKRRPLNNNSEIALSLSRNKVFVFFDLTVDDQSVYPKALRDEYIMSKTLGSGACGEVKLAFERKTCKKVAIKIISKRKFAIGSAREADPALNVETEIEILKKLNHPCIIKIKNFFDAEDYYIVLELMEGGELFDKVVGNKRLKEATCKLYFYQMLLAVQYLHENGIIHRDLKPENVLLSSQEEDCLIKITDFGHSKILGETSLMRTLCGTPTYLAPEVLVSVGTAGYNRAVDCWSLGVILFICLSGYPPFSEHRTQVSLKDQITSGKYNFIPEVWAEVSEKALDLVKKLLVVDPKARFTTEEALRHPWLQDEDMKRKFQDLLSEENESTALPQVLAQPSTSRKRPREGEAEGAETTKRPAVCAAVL

Structures are written as SMILES.

For `N#Cc1cnc(Nc2cn(-c3ccc(N4CCC(N5CC6(CCC6)C5)C4)cc3)cn2)cn1` (single isomer, unassigned) [Example 131, 5-((1-(4-(3-(2-Azaspiro[3.3]heptan-2-yl)pyrrolidin-1-yl)phenyl)-1H-imidazol-4-yl)amino)pyrazine-2-carbonitrile], the values for the half-maximal inhibitory concentration (IC50) against human Chk1 kinase and on human Chk2 kinase were 10 to 31.6 nM and 1000 to 10000 nM, respectively.
On the same counts, the results for `CC1(C)CCN1C1CCN(c2ccc(-n3cnc(Nc4cnc(C#N)cn4)c3)cc2)C1` (single isomer, unassigned) [Example 140, 5-((1-(4-(3-(2,2-Dimethylazetidin-1-yl)pyrrolidin-1-yl)phenyl)-1H-imidazol-4-yl)amino)pyrazine-2-carbonitrile] are less than 10 nM and 1000 to 10000 nM.
On the same counts, the results for `CC1CN(C2CCN(c3ccc(-n4cnc(Nc5cnc(C#N)cn5)c4)cc3)C2)C1` (single isomer, unassigned) [Example 125, 5-((1-(4-(3-(3-Methylazetidin-1-yl)pyrrolidin-1-yl)phenyl)-1H-imidazol-4-yl)amino)pyrazine-2-carbonitrile] are 10 to 31.6 nM and 1000 to 10000 nM.
The matching figures for `CN1CC2(CC(Oc3ccc(-n4cnc(Nc5cnc(C#N)cn5)c4)cc3)C2)C1` [Example 178, 5-((1-(4-((2-Methyl-2-azaspiro[3.3]heptan-6-yl)oxy)phenyl)-1H-imidazol-4-yl)amino)pyrazine-2-carbonitrile]: 31.6 to 100 nM and 10000 to 100000 nM.
Turning to `N#Cc1cnc(Nc2cn(-c3cccc(N4CCN5CCC[C@H]5C4)c3)cn2)cn1` [Example 35, (S)-5-((1-(3-(Hexahydropyrrolo[1,2-a]pyrazin-2(1H)-yl)phenyl)-1H-imidazol-4-yl)amino)pyrazine-2-carbonitrile], the IC50 (in general, the point on the concentration scale where inhibition reaches its midpoint) on human Chk1 kinase is 31.6 to 100 nM; at human Chk2 kinase, more than 100000 nM.
On the same counts, the results for `N#Cc1cnc(Nc2cn(-c3ccc(CN4CC[C@@H](F)C4)c(Cl)c3)cn2)cn1` [Example 2, (R)-5-((1-(3-Chloro-4-((3-fluoropyrrolidin-1-yl)methyl)phenyl)-1H-imidazol-4-yl)amino)pyrazine-2-carbonitrile] are 316 to 1000 nM and more than 100000 nM.
Take `COc1cc(CN2CCC(F)(F)CC2)ccc1-n1cnc(Nc2cnc(C#N)cn2)c1` [Example 172, 5-((1-(4-((4,4-Difluoropiperidin-1-yl)methyl)-2-methoxyphenyl)-1H-imidazol-4-yl)amino)pyrazine-2-carbonitrile]: the IC50 was in the range of 31.6 to 100 nM against human Chk1 kinase and 10000 to 100000 nM at human Chk2 kinase.
The matching figures for `CN1CCN(c2ccc(-n3cnc(Nc4cnc(C#N)cn4)c3)cn2)CC1` [Example 19, 5-((1-(6-(4-Methylpiperazin-1-yl)pyridin-3-yl)-1H-imidazol-4-yl)amino)pyrazine-2-carbonitrile]: 100 to 316 nM and 10000 to 100000 nM.
On the same counts, the results for `CN1CCC(Nc2ccc(-n3cnc(Nc4cnc(C#N)cn4)c3)cc2)CC1` [Example 26, 5-((1-(4-((1-Methylpiperidin-4-yl)amino)phenyl)-1H-imidazol-4-yl)amino)pyrazine-2-carbonitrile] are 10 to 31.6 nM and 10000 to 100000 nM.
The matching figures for `CN1C[C@@H]2CN(c3ccc(-n4cnc(Nc5cnc(C#N)cn5)c4)c(F)c3)[C@@H]2C1` [Example 80, 5-((1-(2-Fluoro-4-((1R,5S)-3-methyl-3,6-diazabicyclo[3.2.0]heptan-6-yl)phenyl)-1H-imidazol-4-yl)amino)pyrazine-2-carbonitrile]: 31.6 to 100 nM and 10000 to 100000 nM.
As for `COc1cc(CN2CC[C@@H](F)C2)cc(F)c1-n1cnc(Nc2cnc(C#N)cn2)c1` [Example 5, (R)-5-((1-(2-Fluoro-4-((3-fluoropyrrolidin-1-yl)methyl)-6-methoxyphenyl)-1H-imidazol-4-yl)amino)pyrazine-2-carbonitrile], the results for the IC50 against human Chk1 kinase and at human Chk2 kinase were 316 to 1000 nM and more than 100000 nM, respectively.
The matching figures for `CN1C[C@H]2C[C@@H]1CN2c1ccc(-n2cnc(Nc3cnc(C#N)cn3)c2)cc1` [Example 9, 5-((1-(4-((1R,4R)-5-Methyl-2,5-diazabicyclo[2.2.1]heptan-2-yl)phenyl)-1H-imidazol-4-yl)amino)pyrazine-2-carbonitrile]: 10 to 31.6 nM and 10000 to 100000 nM.
The matching figures for `N#Cc1cnc(Nc2cn(-c3ccc(N4CC[C@@H](N5CCOCC5)C4)cc3)cn2)cn1` [Example 72, (R)-5-((1-(4-(3-Morpholinopyrrolidin-1-yl)phenyl)-1H-imidazol-4-yl)amino)pyrazine-2-carbonitrile]: 10 to 31.6 nM and 10000 to 100000 nM.
On the same counts, the results for `CC1(C)CCN1C1CCN(c2ccc(-n3cnc(Nc4cnc(C#N)cn4)c3)cc2)C1` (single isomer, unassigned) [Example 139, 5-((1-(4-(3-(2,2-Dimethylazetidin-1-yl)pyrrolidin-1-yl)phenyl)-1H-imidazol-4-yl)amino)pyrazine-2-carbonitrile] are 31.6 to 100 nM and more than 100000 nM.
`C[C@H]1CCN1C1CCN(c2ccc(-n3cnc(Nc4cnc(C#N)cn4)c3)cc2)C1` (single isomer, unassigned) [Example 137]: the IC50 against human Chk1 kinase was 10 to 31.6 nM; against human Chk2 kinase it was more than 100000 nM.
On the same counts, the results for `COc1cc(OC2CN(C(C)(C)C)C2)ccc1-n1cnc(Nc2cnc(C#N)cn2)c1` [Example 53, 5-((1-(4-((1-(tert-Butyl)azetidin-3-yl)oxy)-2-methoxyphenyl)-1H-imidazol-4-yl)amino)pyrazine-2-carbonitrile] are 10 to 31.6 nM and 10000 to 100000 nM.
On the same counts, the results for `CN1CCC12CCN(c1ccc(-n3cnc(Nc4cnc(C#N)cn4)c3)cc1)CC2` [Example 100, 5-((1-(4-(1-Methyl-1,7-diazaspiro[3.5]nonan-7-yl)phenyl)-1H-imidazol-4-yl)amino)pyrazine-2-carbonitrile] are 10 to 31.6 nM and 10000 to 100000 nM.
On the same counts, the results for `CN1CCN(c2ccc(-n3cnc(Nc4cnc(C#N)cn4)c3)cc2)CC1(C)C` [Example 97, 5-((1-(4-(3,3,4-Trimethylpiperazin-1-yl)phenyl)-1H-imidazol-4-yl)amino)pyrazine-2-carbonitrile] are 31.6 to 100 nM and 10000 to 100000 nM.
On to `Cc1cc(CN2CC[C@@H](F)C2)cc(C)c1-n1cnc(Nc2cnc(C#N)cn2)c1` [Example 57, (R)-5-((1-(4-((3-Fluoropyrrolidin-1-yl)methyl)-2,6-dimethylphenyl)-1H-imidazol-4-yl)amino)pyrazine-2-carbonitrile], for which the figures for the IC50 at human Chk1 kinase and on human Chk2 kinase were 316 to 1000 nM and more than 100000 nM, respectively.
Regarding `CN1CCN(Cc2ccc(-n3cnc(Nc4cnc(C#N)cn4)c3)cc2)CC1` [Example 7, 5-((1-(4-((4-Methylpiperazin-1-yl)methyl)phenyl)-1H-imidazol-4-yl)amino)pyrazine-2-carbonitrile], the IC50 against human Chk1 kinase was 100 to 316 nM; against human Chk2 kinase, more than 100000 nM.
Turning to `COc1cc(OC2CC3(C2)CN(C)C3)ccc1-n1cnc(Nc2cnc(C#N)cn2)c1` [Example 180, 5-((1-(2-Methoxy-4-((2-methyl-2-azaspiro[3.3]heptan-6-yl)oxy)phenyl)-1H-imidazol-4-yl)amino)pyrazine-2-carbonitrile], the IC50 on human Chk1 kinase was in the range of 31.6 to 100 nM; against human Chk2 kinase, 10000 to 100000 nM.
On the same counts, the results for `CN1CCCC12CN(c1cccc(-n3cnc(Nc4cnc(C#N)cn4)c3)c1)C2` [Example 34, 5-((1-(3-(5-Methyl-2,5-diazaspiro[3.4]octan-2-yl)phenyl)-1H-imidazol-4-yl)amino)pyrazine-2-carbonitrile] are 10 to 31.6 nM and 10000 to 100000 nM.
With `C[C@@H]1CN(C)CCN1c1ccc(-n2cnc(Nc3cnc(C#N)cn3)c2)cc1` [Example 16, (R)-5-((1-(4-(2,4-Dimethylpiperazin-1-yl)phenyl)-1H-imidazol-4-yl)amino)pyrazine-2-carbonitrile], the values for the IC50 on human Chk1 kinase and at human Chk2 kinase were 10 to 31.6 nM and 10000 to 100000 nM, respectively.
On to `CC1(C)CN(C2CCN(c3ccc(-n4cnc(Nc5cnc(C#N)cn5)c4)cc3)C2)C1` (single isomer, unassigned) [Example 123, 5-((1-(4-(3-(3,3-Dimethylazetidin-1-yl)pyrrolidin-1-yl)phenyl)-1H-imidazol-4-yl)amino)pyrazine-2-carbonitrile], for which the IC50 against human Chk1 kinase was 10 to 31.6 nM; against human Chk2 kinase, more than 100000 nM.
For `N#Cc1cnc(Nc2cn(-c3cccc(N4C[C@@H](N)[C@@H](F)C4)c3)cn2)cn1` [Example 151, 5-((1-(3-((3R,4S)-3-Amino-4-fluoropyrrolidin-1-yl)phenyl)-1H-imidazol-4-yl)amino)pyrazine-2-carbonitrile], the IC50 on human Chk1 kinase is 31.6 to 100 nM; against human Chk2 kinase it was 10000 to 100000 nM.
On to `CN(C)C1CN(c2ccc(-n3cnc(Nc4cnc(C#N)cn4)c3)cc2)C1` [Example 32, 5-((1-(4-(3-(Dimethylamino)azetidin-1-yl)phenyl)-1H-imidazol-4-yl)amino)pyrazine-2-carbonitrile], for which the half-maximal inhibitory concentration (IC50) is less than 10 nM against human Chk1 kinase and more than 100000 nM against human Chk2 kinase.
On the same counts, the results for `CN1CCOC(c2ccc(-n3cnc(Nc4cnc(C#N)cn4)c3)cc2)C1` (single isomer, unassigned) [Example 105, 5-((1-(4-(4-Methylmorpholin-2-yl)phenyl)-1H-imidazol-4-yl)amino)pyrazine-2-carbonitrile] are 31.6 to 100 nM and 10000 to 100000 nM.
On the same counts, the results for `C[C@H]1CN(C)CCN1c1ccc(-n2cnc(Nc3cnc(C#N)cn3)c2)cc1` [Example 17, (S)-5-((1-(4-(2,4-Dimethylpiperazin-1-yl)phenyl)-1H-imidazol-4-yl)amino)pyrazine-2-carbonitrile] are 31.6 to 100 nM and 10000 to 100000 nM.
